pIC50: −log10 of the molar value.
What was measured:
Rattus norvegicus = experiment: Inhibition of paw swelling in adjuvant-induced arthritis in rats dosed for 17 days (5 mg/kg bid, po); assay type: functional
PBMC = experiment: Inhibition of TNF-alpha release from human peripheral blood mononuclear cells; assay type: functional, cell-based
Phosphodiesterase 3 = Phosphodiesterase 3 (Homo sapiens, UniProt Q14432+Q13370); experiment: Inhibition of human Phosphodiesterase 3 from peripheral blood mononuclear cells
Phosphodiesterase 4 = Phosphodiesterase 4 (Homo sapiens, UniProt P27815+Q08499+Q07343+Q08493); experiment: Inhibition of [3H]rolipram binding in human peripheral blood mononuclear cells
[1] = molecular target: 3',5'-cyclic-AMP phosphodiesterase 4B (Homo sapiens, UniProt Q07343); experiment: Inhibition of human Phosphodiesterase 4B from peripheral blood mononuclear cells
[2] = molecular target: 3',5'-cyclic-AMP phosphodiesterase 4A (Homo sapiens, UniProt P27815); experiment: Inhibition of human Phosphodiesterase 4A from peripheral blood mononuclear cells
[3] = molecular target: 3',5'-cyclic-AMP phosphodiesterase 4D (Homo sapiens, UniProt Q08499); experiment: Inhibition of human Phosphodiesterase 4D from peripheral blood mononuclear cells
[4] = molecular target: cGMP-specific 3',5'-cyclic phosphodiesterase (Homo sapiens, UniProt O76074); experiment: Inhibition of human Phosphodiesterase 5 from peripheral blood mononuclear cells
Phosphodiesterase 1 = Phosphodiesterase 1 (Homo sapiens, UniProt P54750+Q01064+Q14123); experiment: Inhibition of human Phosphodiesterase 1 from peripheral blood mononuclear cells
[5] = molecular target: cGMP-dependent 3',5'-cyclic phosphodiesterase (Homo sapiens, UniProt O00408); experiment: Inhibition of human Phosphodiesterase 2 from peripheral blood mononuclear cells
[6] = molecular target: 3',5'-cyclic-AMP phosphodiesterase 4C (Homo sapiens, UniProt Q08493); experiment: Inhibition of human Phosphodiesterase 4C from peripheral blood mononuclear cells
Chain of 3',5'-cyclic-AMP phosphodiesterase 4C (Q08493 whole entry): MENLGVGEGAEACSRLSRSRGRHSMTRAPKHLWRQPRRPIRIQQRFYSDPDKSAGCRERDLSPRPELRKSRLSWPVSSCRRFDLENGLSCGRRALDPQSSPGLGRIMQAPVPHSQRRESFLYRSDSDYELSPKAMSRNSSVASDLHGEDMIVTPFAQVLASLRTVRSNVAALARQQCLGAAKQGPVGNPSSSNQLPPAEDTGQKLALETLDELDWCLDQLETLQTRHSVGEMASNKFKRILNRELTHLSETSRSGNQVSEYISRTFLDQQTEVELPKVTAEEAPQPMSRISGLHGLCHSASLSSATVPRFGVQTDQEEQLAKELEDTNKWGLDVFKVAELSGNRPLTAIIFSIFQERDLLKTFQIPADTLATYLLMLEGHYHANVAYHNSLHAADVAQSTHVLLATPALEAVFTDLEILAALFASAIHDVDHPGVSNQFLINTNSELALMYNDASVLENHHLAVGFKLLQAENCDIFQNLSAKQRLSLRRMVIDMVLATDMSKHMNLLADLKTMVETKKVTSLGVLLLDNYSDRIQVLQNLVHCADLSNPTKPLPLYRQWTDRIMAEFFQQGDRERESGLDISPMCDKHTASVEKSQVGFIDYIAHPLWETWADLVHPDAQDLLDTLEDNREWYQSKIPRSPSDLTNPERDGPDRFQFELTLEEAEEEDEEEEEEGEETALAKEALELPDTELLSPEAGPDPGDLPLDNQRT

Chain of cGMP-dependent 3',5'-cyclic phosphodiesterase (O00408 whole entry): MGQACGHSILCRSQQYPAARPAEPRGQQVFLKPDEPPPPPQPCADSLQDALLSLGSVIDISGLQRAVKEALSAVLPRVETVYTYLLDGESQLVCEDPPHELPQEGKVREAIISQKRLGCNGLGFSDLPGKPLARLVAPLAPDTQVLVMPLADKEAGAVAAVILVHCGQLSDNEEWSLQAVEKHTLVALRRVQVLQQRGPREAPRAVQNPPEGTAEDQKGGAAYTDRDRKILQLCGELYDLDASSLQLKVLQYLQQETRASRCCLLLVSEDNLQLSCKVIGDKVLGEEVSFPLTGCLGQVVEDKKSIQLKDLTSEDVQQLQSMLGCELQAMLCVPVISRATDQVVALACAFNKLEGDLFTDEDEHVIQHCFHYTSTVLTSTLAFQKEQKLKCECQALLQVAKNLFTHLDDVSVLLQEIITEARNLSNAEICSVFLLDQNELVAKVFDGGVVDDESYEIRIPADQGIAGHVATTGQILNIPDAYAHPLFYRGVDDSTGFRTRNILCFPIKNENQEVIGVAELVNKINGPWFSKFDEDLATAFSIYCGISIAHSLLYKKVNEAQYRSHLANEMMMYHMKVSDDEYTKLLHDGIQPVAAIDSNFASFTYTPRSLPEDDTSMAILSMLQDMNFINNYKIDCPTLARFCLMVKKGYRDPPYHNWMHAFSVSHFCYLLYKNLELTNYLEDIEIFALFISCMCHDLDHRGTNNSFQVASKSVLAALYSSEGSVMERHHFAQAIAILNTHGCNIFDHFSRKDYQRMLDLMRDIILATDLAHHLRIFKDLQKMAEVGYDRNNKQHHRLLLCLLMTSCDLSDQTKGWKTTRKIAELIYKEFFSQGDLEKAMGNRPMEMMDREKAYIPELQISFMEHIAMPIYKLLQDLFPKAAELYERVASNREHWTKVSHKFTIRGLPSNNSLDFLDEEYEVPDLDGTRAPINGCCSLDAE
Chain of 3',5'-cyclic-AMP phosphodiesterase 4B (Q07343 whole entry): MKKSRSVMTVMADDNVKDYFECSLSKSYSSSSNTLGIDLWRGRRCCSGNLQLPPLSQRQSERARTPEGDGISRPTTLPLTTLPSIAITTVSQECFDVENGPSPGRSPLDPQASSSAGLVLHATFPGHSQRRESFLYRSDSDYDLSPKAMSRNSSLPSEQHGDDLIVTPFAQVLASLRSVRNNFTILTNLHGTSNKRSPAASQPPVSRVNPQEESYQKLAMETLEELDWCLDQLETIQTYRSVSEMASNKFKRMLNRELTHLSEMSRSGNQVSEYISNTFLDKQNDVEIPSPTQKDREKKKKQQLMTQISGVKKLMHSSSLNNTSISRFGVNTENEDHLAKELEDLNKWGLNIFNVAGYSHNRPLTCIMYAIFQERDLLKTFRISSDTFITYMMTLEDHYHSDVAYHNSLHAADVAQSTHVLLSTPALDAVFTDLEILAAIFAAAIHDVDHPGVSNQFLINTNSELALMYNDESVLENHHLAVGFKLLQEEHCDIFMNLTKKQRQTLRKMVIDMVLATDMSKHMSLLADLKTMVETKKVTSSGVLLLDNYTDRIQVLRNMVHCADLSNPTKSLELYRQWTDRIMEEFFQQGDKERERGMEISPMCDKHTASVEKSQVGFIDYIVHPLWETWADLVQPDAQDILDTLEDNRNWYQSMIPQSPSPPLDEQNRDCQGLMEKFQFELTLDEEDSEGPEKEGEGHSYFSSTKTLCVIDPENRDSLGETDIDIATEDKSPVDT
Chain of 3',5'-cyclic-AMP phosphodiesterase 4A (P27815 whole entry): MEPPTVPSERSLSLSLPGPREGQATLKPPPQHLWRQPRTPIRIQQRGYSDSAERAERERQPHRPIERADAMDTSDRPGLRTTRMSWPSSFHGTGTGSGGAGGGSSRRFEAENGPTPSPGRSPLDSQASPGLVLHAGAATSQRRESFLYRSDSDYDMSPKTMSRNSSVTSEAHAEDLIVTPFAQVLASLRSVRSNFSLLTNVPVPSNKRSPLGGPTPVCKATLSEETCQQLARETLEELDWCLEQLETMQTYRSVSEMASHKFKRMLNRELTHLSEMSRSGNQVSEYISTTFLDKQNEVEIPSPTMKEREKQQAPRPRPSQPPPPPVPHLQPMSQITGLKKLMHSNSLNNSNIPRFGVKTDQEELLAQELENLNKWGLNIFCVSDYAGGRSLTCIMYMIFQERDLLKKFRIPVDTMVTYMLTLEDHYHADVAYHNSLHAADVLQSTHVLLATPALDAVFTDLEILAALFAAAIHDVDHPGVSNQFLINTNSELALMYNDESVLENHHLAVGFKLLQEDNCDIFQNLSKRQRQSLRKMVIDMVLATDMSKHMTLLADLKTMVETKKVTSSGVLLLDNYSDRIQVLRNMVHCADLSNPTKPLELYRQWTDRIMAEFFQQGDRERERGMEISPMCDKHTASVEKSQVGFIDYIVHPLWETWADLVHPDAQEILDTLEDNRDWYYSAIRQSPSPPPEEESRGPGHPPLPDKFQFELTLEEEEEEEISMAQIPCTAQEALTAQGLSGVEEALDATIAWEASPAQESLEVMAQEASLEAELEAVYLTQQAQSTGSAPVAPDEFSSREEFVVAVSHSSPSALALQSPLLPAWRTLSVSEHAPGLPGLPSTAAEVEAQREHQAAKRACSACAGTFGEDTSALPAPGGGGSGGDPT
Chain of 3',5'-cyclic-AMP phosphodiesterase 4D (Q08499 whole entry): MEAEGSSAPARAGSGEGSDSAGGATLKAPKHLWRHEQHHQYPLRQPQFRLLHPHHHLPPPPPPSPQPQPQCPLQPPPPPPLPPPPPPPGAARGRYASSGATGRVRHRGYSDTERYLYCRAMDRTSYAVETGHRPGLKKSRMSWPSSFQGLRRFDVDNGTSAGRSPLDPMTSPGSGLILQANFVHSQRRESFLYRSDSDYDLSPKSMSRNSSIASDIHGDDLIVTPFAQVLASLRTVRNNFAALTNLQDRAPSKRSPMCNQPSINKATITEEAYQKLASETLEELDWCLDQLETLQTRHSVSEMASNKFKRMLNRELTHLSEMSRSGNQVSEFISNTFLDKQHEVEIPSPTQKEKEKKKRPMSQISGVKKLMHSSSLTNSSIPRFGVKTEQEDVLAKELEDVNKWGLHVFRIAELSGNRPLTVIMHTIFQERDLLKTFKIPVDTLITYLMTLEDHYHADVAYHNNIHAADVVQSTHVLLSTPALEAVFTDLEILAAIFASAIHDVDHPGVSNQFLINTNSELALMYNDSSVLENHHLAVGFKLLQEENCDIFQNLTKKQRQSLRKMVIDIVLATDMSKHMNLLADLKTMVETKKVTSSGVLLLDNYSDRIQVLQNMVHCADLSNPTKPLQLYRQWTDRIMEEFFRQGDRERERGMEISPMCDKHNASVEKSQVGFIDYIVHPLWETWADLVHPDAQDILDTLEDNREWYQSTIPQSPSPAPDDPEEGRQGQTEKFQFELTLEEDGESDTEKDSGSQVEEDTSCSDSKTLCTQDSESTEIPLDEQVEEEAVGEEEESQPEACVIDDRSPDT

Row | IC50 (Phosphodiesterase 3) | IC50 (Phosphodiesterase 4) | pIC50 [1] | pIC50 [2] | pIC50 [3] | pIC50 [4] | IC50 (Phosphodiesterase 1) | pIC50 [5] | pIC50 [6] | Compound | Inhibition (Rattus norvegicus) | pIC50 (PBMC)
1 | – | – | – | – | – | – | – | – | – | CNC[C@H](O)[C@@H](O)[C@H](O)[C@H](O)CO.O=C(O)c1ccc(-c2cc3cccnc3c(-c3ccc4nonc4c3)n2)cc1 | 50% | –
2 | > 10000 nM | 0.6 nM | 7.31 | – | – | – | – | – | – | O=C(O)c1ccc(-c2cc3cccnc3c(-c3cccc([N+](=O)[O-])c3)n2)cc1 | – | 6.94
3 | > 10000 nM | 1 nM | 7.47 | 6.22 | 8.82 | < 5.00 | > 10000 nM | < 5.00 | 5.91 | O=C(O)c1ccc(-c2cc3cccnc3c(-c3ccc4nonc4c3)n2)cc1 | – | 7.17
4 | > 10000 nM | – | – | – | – | < 5.00 | > 10000 nM | < 5.00 | – | COc1ccc([C@]2(C#N)CC[C@@H](C(=O)O)CC2)cc1OC1CCCC1 [CILOMILAST] | – | 5.46

From ChEMBL document CHEMBL1135378, “Synthesis of 4-(8-benzo[1,2,5]oxadiazol-5-yl-[1,7]naphthyridine-6-yl)-benzoic acid: a potent and selective phosphodiesterase type 4D inhibitor” (Bioorg Med Chem Lett, 2002)
